Assay results as given in patent US10993919B2, “Chondroprotective nanoparticles for the treatment of osteoarthritis” (University of Florida Research Foundation, Inc., priority 2016, dated 2021).

Test system: fat pad-derived MSCs
Assay: MSC migration in Boyden chamber plates
Type: cell-based
Conditions: MSCs isolated from the fat pad of the joint; preliminary
Protocol: To determine if there are inherent differences in the migratory activity of the different MSC populations, migration in response to serum is first evaluated using 96-well Boyden chamber plates. To simulate OA conditions, MSC migration is evaluated in response to IL-1β (10 ng/mL and 50 ng/mL), conditioned medium from the established OA cartilage explants, and conditioned medium from normal explants. Results from each group are compared with a positive control of media with 10% serum to determine if the experimental conditions increase or decrease migration of MSCs.
The response of MSCs to chondroinductive agents is evaluated, specifically platelet-derived growth factor (PDGF-BB) and kartogenin (KGN), which were selected based on their pleiotropic effects on promoting both migration and chondrogenesis of MSCs without adverse effects in the OA joint. PDGF-BB exerts chemotactic effects on bone marrow-derived MSCs, and facilitates new cartilage formation in the presence of IL-1β (Montaseri, A., et al. PloS one 6:e28663 (2011)). […] Kartogenin has been implicated in stimulating MSC recruitment in vivo, however, there are no reported migration studies with KGN, and therefore, the underlying mechanism for KGN-mediated recruitment is largely unknown. […]

With “IL-1β: predominant pro-inflammatory cytokine in OA” the MSC migration was “may indeed inhibit migration”.
